Results from US7803930B2, “Antisense modulation of apolipoprotein B-expression” (Isis Pharmaceuticals, Inc., priority 2002, dated 2010).
In the oligonucleotide strings, read from the 5' end, every base follows the letter of its sugar. An asterisk marks phosphorothioate; unmarked linkages are phosphodiester. Other units and linkages are bracketed, terminal groups are in braces. A string of capitals states the bases alone. e = 2'-O-(2-methoxyethyl) (MOE); [5mC] = 5-methylcytosine; d = 2'-deoxy (DNA); r = 2'-OH (RNA)

Columns and labels:
Format in all cases: cell-based
[1] = system: human apolipoprotein B mRNA; assay: Inhibition of human apolipoprotein B mRNA levels in HepG2 cells, quantitative real-time PCR; details: for % INHIB (inhibition of human apolipoprotein B mRNA levels): HepG2 cells treated with 150 nM of compound, averages from two experiments, quantitative real-time PCR; for % inhibition 37 nM / % inhibition 75 nM / % inhibition 150 nM / % inhibition 300 nM: Table 19 dose response, HepG2 cells, normalized to untreated control
Procedure, shortened: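 HepG2 cells at 80% confluency were transfected with antisense oligonucleotide using 3.75 μg/mL Lipofectin in Opti-MEM for 4-7 h and harvested 16-24 h after treatment. Apolipoprotein B mRNA was measured by real-time RT-PCR and normalized to GAPDH or RiboGreen total RNA. Percent inhibition came from untreated-control standard curves.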

[2] = system: human apolipoprotein B mRNA; assay: Inhibition of apolipoprotein B mRNA by dsRNAs in HepG2 cells; details: 150 nM with 3.75 μg/mL LIPOFECTIN
Method: In accordance with the present invention, a series of nucleic acid duplexes comprising the antisense compounds of the present invention and their complements were designed to target apolipoprotein B and are shown in Table 42. All compounds in Table 42 are oligoribonucleotides 20 nucleotides in length with phosphodiester internucleoside linkages (backbones) throughout the compound. The compounds were prepared with blunt ends. […] These sequences are shown to contain uracil (U) but one of skill in the art will appreciate that uracil (U) is generally replaced by thymine (T) in DNA sequences. “Targer site” indicates the first (5′-most) nucleotide number on the particular target sequence to which the compound binds. A subset of the compounds in Table 42 are the RNA equivalents of DNA antisense oligonucleotides described herein, and, where applicable, this is noted by the ISIS # of the DNA oligonucleotide in the column “RNA equivalent of ISIS #”.
The dsRNA compounds in Table 42 were tested for their effects on human apolipoprotein mRNA in HepG2 cells. HepG2 cells were treated with 100 nM of dsRNA compounds mixed with 5 μg/mL LIPOFECTIN (Invitrogen Corporation, Carlsbad, Calif.) for a period of 16 hours. In the same experiment, HepG2 cells were also treated with 150 nM of subset of the antisense oligonucleotides described herein mixed with 3.75 μg/mL LIPOFECTIN; these compounds are listed in Table 43. Control oligonucleotides included ISIS 18078 ([…], SEQ ID NO: 888). ISIS 18078 is a chimeric oligonucleotide (“gapmer”) 20 nucleotides in length, composed of a central “gap” region consisting of 9 2′-deoxynucleotides, which is flanked on the 5′ and 3′ ends by a five-nucleotide “wing” and a six-nucleotide “wing”, respectively. The wings are composed of 2′-methoxyethyl (2′-MOE)nucleotides. The internucleoside (backbone) linkages are phosphorothioate (P═S) throughout the oligonucleotide. All cytidines are 5-methylcytidines. The duplex of ISIS 263188 ([…], SEQ ID NO: 889) and its complement was also used as a control. ISIS 263188 is an oligoribonucleotide 21 nucleotides in length with the 2 nucleotides on the 3′ end being oligodeoxyribonucleotides (TT) and with phosphodiester internucleoside linkages (backbones) throughout the compound.
Cells were treated for 4 hours, after which human apolipoprotein B mRNA expression was measured as described by examples herein. Results were normalized to untreated control cells, which were not treated with LIPOFECTIN or oligonucleotide.

[3] = system: human apolipoprotein B mRNA; assay: Apolipoprotein B mRNA in primary human hepatocytes, real-time PCR
Method: In accordance with the present invention, antisense oligonucleotides targeted to human apolipoprotein B were tested in dose response studies in primary human hepatocytes. Pre-plated primary human hepatocytes were purchased from Invitro Technologies (Baltimore, Md.). Cells were cultured in high-glucose DMEM (Invitrogen Corporation, Carlsbad, Calif.) supplemented with 10% fetal bovine serum (Invitrogen Corporation, Carlsbad, Calif.), 100 units/mL and 100 μg/mL streptomycin (Invitrogen Corporation, Carlsbad, Calif.).
Human primary hepatocytes were treated with ISIS 301012 (SEQ ID NO: 247) at 10, 50, 150 or 300 nM. Untreated cells and cells treated with the scrambled control oligonucleotide ISIS 113529 ([…], SEQ ID NO: 859) served as two groups of control cells. ISIS 113529 is a chimeric oligonucleotide (“gapmer”) 20 nucleotides in length, composed of a central “gap” region consisting of ten 2′-deoxynucleotides, which is flanked on both sides (5′ and 3′ directions) by five-nucleotide “wings”. The wings are composed of 2′-methoxyethyl (2′-MOE)nucleotides. The internucleoside (backbone) linkages are phosphorothioate (P═S) throughout the oligonucleotide. All cytidines are 5-methylcytidines.
(§1) Oligonucleotides were introduced into cells through LIPOFECTIN-mediated transfection as described by other examples herein. Cells were harvested both 24 and 48 hours after treatment with oligonucleotide, and both RNA and protein were isolated. Additionally, the culture media from treated cells was collected for ELISA analysis of apolipoprotein B protein secretion.
Apolipoprotein B mRNA expression was determined by real-time PCR of RNA samples as described by other examples herein. Each result represents 6 experiments.
(§2) An additional experiment was performed to test the effects of ISIS 271009 (SEQ ID NO: 319), ISIS 281625 (SEQ ID NO: 224) and ISIS 301027 (SEQ ID NO: 262) on human apolipoprotein B mRNA in human primary hepatocytes. Cells were cultured as described herein and treated with 5, 10, 50 or 150 nM of ISIS 271009, ISIS 281625 or ISIS 301027 for a period of 24 hours. The control oligonucleotides ISIS 13650 (SEQ ID NO: 806) and ISIS 113529 (SEQ ID NO: 859) were used at 50 or 150 nM. Human apolipoprotein B mRNA expression was evaluated by real-time PCR as described by other examples herein. Apolipoprotein B protein secreted into the cultured cell media was measured in the samples treated with 50 and 150 nM of oligonucleotide, using a target protein specific ELISA kit (ALerCHEK Inc., Portland, Me.).

apolipoprotein B protein = assay: Apolipoprotein B protein secreted from primary human hepatocytes, ELISA; details: for % Inhibition of apolipoprotein B protein secretion: 24 hours
Method: as §1
Apolipoprotein secreted from into the cultured cell media was measured in the samples treated with 50 and 150 nM of oligonucleotide, using a target protein specific ELISA kit (ALerCHEK Inc., Portland, Me.). Each result represents 3 experiments.
as §2

[4] = system: human apolipoprotein(a) mRNA; assay: Apolipoprotein(a) mRNA expression in primary human hepatocytes, real-time PCR; details: human primary hepatocytes; 5, 10, 50 or 150 nM, 24 hours
Method: Primary human hepatocytes (InVitro Technologies, Baltimore, Md.), cultured and transfected as described herein, were treated with 5, 10, 50 or 150 nM of ISIS 271009 (SEQ ID NO: 319), 281625 (SEQ ID NO: 224), 301012 (SEQ ID NO: 247) or 301027 (SEQ ID NO: 262). Cells were also treated with 50 or 150 nM of the control oligonucleotides ISIS 113529 (SEQ ID NO: 859) or ISIS 13650 (SEQ ID NO: 806). Untreated cells served as a control. Following 24 hours of oligonucleotide treatment, apolipoprotein(a) mRNA expression was measured by quantitative real-time PCR as described in other examples herein.
Probes and primers to human apolipoprotein(a) were designed to hybridize to a human apolipoprotein(a) sequence, using published sequence information (GenBank accession number NM_005577.1, incorporated herein as SEQ ID NO: 860). For human apolipoprotein(a) the PCR primers were: […]
forward primer: […] (SEQ ID NO: 861)
reverse primer: TGCGTCTGAGCATTGCGT (SEQ ID NO: 862) and the PCR probe was: FAM-[…]-TAMRA (SEQ ID NO: 863) where FAM is the fluorescent dye and TAMRA is the quencher dye.
Data are the average of three experiments and are expressed as percent inhibition relative to untreated controls.

[5] = system: Cynomolgous monkey apolipoprotein B mRNA; assay: Apolipoprotein B mRNA in primary Cynomolgous monkey hepatocytes, real-time PCR; details: Cynomolgous monkey primary hepatocytes; 10, 50 and 150 nM, 24 hours
Method: Antisense inhibition by ISIS 301012 was compared to that of ISIS 326358, which is a perfect match to the Cynomolgous monkey apolipoprotein B sequence to which ISIS 301012 hybridizes. The compounds were analyzed for their effect on Cynomolgous monkey apolipoprotein B mRNA levels in primary Cynomolgous monkey hepatocytes purchased from In Vitro Technologies ([…].). Pre-plated primary Cynonomolgous monkey hepatocytes were purchased from InVitro Technologies (Baltimore, Md.). Cells were cultured in high-glucose DMEM (Invitrogen Corporation, Carlsbad, Calif.) supplemented with 10% fetal bovine serum (Invitrogen Corporation, Carlsbad, Calif.), 100 units/mL and 100 μg/mL streptomycin (Invitrogen Corporation, Carlsbad, Calif.).
Primary Cynomolgous monkey hepatocytes were treated with 10, 50, 150 or 300 nM of antisense oligonucleotides for 48 hours. ISIS 113529 (SEQ ID NO: 859) was used as a control oligonucleotide. Untreated cells also served as a control. Cynomolgous monkey apolipoprotein B mRNA levels were quantitated by real-time PCR using the human apolipoprotein B and GAPDH primers and probes described by other examples herein. The results, shown in Table 44, are the average of 6 experiments and are expressed as percent inhibition of apolipoprotein B mRNA normalized to untreated control cells.
In a further embodiment of the invention, antisense inhibition by ISIS 281625 was compared to that by ISIS 315089, which is a perfect match to the Cynomolgous monkey apolipoprotein B sequence to which ISIS 281625 hybridizes. Primary Cynomolgous monkey hepatocytes, cultured as described herein, were treated with 10, 50, 150 or 300 nM of ISIS 315089 or ISIS 281625 for 24 hours. Cells were treated with the control oligonucleotide ISIS 13650 (SEQ ID NO: 806) at 150 and 300 nM or ISIS 113529 (SEQ ID NO: 859) at 300 nM. Untreated cells also served as a control. Cynomolgous monkey apolipoprotein B mRNA levels in primary Cynomolgous monkey hepatocytes was quantitated using real-time PCR with human primers and probe as described by other examples herein. The results, shown in Table 46, are the average of 3 experiments and are expressed as percent inhibition of apolipoprotein B mRNA normalized to untreated control cells.
ISIS 271009 (SEQ ID NO: 319) and ISIS 301027 (SEQ ID NO: 262) were also tested for their effects on apolipoprotein B mRNA and protein expression in Cynomolgous primary hepatoctyes. Cells, cultured as described herein, were treated with 10, 50 and 150 nM of ISIS 271009 or ISIS 301027 for 24 hours. Cells were treated with the control oligonucleotide ISIS 113529 (SEQ ID NO: 859) at 150 nM. Untreated cells also served as a control. Cynomolgous monkey apolipoprotein B mRNA levels in primary Cynomolgous monkey hepatocytes was quantitated using real-time PCR with human primers and probe as described by other examples herein. The results, shown in Table 48, are the average of 2 experiments and are expressed as percent inhibition of apolipoprotein B mRNA normalized to untreated control cells.

## 301037 (e[5mC]*eA*eG*e[5mC]*eT*dT*dT*dG*dG*dT*dG*d[5mC]*dA*dG*dG*eT*e[5mC]*e[5mC]*eA*eG; antisense) [compound 301037]
[1]
  % INHIB (inhibition of human apolipoprotein B mRNA levels): 90%
  % inhibition 37 nM: 73%
  % inhibition 75 nM: 85%
  % inhibition 150 nM: 89%
  % inhibition 300 nM: 96%
[2]
  % Inhibition of apolipoprotein B mRNA: 80%

## 301045 (eA*eG*e[5mC]*eA*eA*dA*dA*dT*dA*dA*d[5mC]*dT*d[5mC]*dA*dG*eA*eT*e[5mC]*e[5mC]*eT; antisense) [compound 301045]
[1]
  % INHIB (inhibition of human apolipoprotein B mRNA levels): 90%
  % inhibition 37 nM: 77%
  % inhibition 75 nM: 86%
  % inhibition 150 nM: 94%
  % inhibition 300 nM: 98%
[2]
  % Inhibition of apolipoprotein B mRNA: 77%

## 301028 (eG*eG*e[5mC]*eT*e[5mC]*dA*d[5mC]*dT*dG*dT*dA*dT*dG*dG*dT*eT*eT*eT*eA*eT; antisense) [compound 301028]
[1]
  % INHIB (inhibition of human apolipoprotein B mRNA levels): 93%
  % inhibition 37 nM: 70%
  % inhibition 75 nM: 79%
  % inhibition 150 nM: 85%
  % inhibition 300 nM: 92%
[2]
  % Inhibition of apolipoprotein B mRNA: 85%

## 18078 (antisense eG*eT*eG*e[5mC]*eG*d[5mC]*dG*d[5mC]*dG*dA*dG*d[5mC]*d[5mC]*d[5mC]*eG*eA*eA*eA*eT*e[5mC]) [compound 18078]
[2]
  % Inhibition of apolipoprotein B mRNA: 13%

## GCCTCAGTCTGCTTCGCGCC (2'-MOE gapmer, further chemistry not given here) [ISIS 271009]
[3]; 5 nM, 24 hours, "+" = expression increased
  % Inhibition of apolipoprotein B mRNA expression: +4%
[3]; 10 nM, 24 hours (Table 37)
  % Inhibition of apolipoprotein B mRNA expression: 5%
[3]; 50 nM, 24 hours (Table 37)
  % Inhibition of apolipoprotein B mRNA expression: 52%
[3]; 150 nM, 24 hours (Table 37)
  % Inhibition of apolipoprotein B mRNA expression: 81%
[3]; 5, 10, 50 or 150 nM, 24 hours
  apolipoprotein B mRNA expression: inhibit apolipoprotein B mRNA expression in a dose-dependent manner
Apolipoprotein B protein; 50 nM
  % Inhibition of apolipoprotein B protein secretion: 17%
Apolipoprotein B protein; 150 nM, "+" = increased
  % Inhibition of apolipoprotein B protein secretion: 32%
Apolipoprotein B protein; 50 and 150 nM
  secretion of apolipoprotein B protein from cells (ELISA): inhibit the secretion of apolipoprotein B protein from cells in a dose-dependent manner
[4]
  expression of apolipoprotein(a) mRNA: inhibited apolipoprotein(a) expression at the highest dose
[5]
  inhibition of apolipoprotein B mRNA expression: in a dose-dependent manner

## 263188 (rCrUrUrCrUrGrGrCrArUrCrCrGrGrUrUrUrArGdTdT; siRNA) [compound 263188]
[2]
  % Inhibition of apolipoprotein B mRNA: 26%
